Source: patent publication US20230117034A1, “PYRAZOLOTRIAZINES” (Bayer Aktiengesellschaft, priority 2019, published 2023)
pIC50: −log10 of the molar value.

Key:
CDK9/CycT1 = target: T1, CDK9/CycT1 (Homo sapiens, UniProt P50750); experiment: CDK9/CycT1 high ATP kinase assay (TR-FRET, 2 mM ATP); type: biochemical; settings: 2 mM ATP (high ATP); median; read-out: CDK9/CyclinT1, 2 mM ATP (high ATP), IC50 (median)
T1 construct: Recombinant full-length His-tagged human CDK9 and CycT1; purchased Life Technologies PV4131; host or cells: insect cells
T1 sequence (P50750 whole entry): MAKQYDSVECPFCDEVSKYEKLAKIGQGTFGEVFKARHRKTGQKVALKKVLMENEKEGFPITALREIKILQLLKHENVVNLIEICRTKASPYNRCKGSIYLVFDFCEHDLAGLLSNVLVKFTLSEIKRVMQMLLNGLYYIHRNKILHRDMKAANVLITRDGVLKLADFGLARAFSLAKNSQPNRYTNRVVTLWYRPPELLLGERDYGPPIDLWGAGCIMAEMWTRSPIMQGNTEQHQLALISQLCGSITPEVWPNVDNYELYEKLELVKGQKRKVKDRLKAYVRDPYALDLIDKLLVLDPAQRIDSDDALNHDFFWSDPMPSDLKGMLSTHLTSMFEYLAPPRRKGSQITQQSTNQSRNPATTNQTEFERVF
T1 sequence (O60563 whole entry partner): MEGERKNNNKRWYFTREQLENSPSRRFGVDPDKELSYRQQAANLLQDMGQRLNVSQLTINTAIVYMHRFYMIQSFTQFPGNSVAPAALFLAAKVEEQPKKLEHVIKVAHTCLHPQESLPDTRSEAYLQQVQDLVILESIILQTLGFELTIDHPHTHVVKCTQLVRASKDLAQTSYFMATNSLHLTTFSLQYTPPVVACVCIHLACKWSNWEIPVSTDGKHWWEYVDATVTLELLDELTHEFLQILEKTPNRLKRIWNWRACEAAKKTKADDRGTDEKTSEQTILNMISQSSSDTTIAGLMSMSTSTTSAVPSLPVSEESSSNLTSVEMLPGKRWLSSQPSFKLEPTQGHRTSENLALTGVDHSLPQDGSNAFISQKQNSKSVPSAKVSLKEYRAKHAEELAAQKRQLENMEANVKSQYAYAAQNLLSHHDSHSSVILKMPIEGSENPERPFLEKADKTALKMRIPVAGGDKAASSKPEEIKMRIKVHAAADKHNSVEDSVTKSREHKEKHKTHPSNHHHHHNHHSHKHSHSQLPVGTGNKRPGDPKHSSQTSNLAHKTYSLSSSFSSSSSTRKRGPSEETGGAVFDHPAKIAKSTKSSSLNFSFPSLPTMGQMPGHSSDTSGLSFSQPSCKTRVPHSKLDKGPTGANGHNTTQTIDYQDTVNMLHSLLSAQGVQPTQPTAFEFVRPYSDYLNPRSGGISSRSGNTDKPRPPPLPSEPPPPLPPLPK
Summary of the method: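 Full-length His-tagged human CDK9/CycT1 (insect cell, ~0.5 μg/mL) preincubated 15 min at 22 °C with compound in Tris pH 8.0, MgCl2, DTT buffer before reaction with biotinylated peptide substrate at high ATP (2 mM).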

[1] = tested on: BRCA1 mRNA expression in MDA-MB-231 cells; experiment: qRT-PCR assay: BRCA1 mRNA expression in MDA-MB-231; type: cell-based, human; settings: Homo sapiens, MDA-MB-231, Inhibition of BRCA1 mRNA expression in MDA-MB-231 cells; median; read-out: RTqPCR-MDA-MB-231, IC50, BRCA1 (median)
Summary of the method: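 BRCA1 transcript by RT-qPCR relative to GAPDH, from 600 ng RNA converted to cDNA. MDA-MB-231 cells plated at 200,000/well received test compound continuously for 24 h, starting 24 h post-seeding.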

[2] = tested on: MDA-MB-231, human breast cancer cells; experiment: Proliferation assay MDA-MB-231 (crystal violet, 4 days); type: cell-based; settings: Homo sapiens, MDA-MB-231, 96 h, MDA-MB-231 cells, median, read-out: Prolif-MDA MB-231, IC50-[mol/l] (median)
Summary of the method: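 IC50 from a 4-parameter fit of crystal violet absorbance (595 nm), scaled between the day-of-dosing plate (0%) and vehicle cells (100%). MDA-MB-231 or CAL-120 cells were treated for 4 days with 0.01–10 micromol/L compound in 0.1% DMSO after 24 h attachment.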

Work on `Cc1ccc2[nH]c(CNc3nc(N4CCN(C)CC4)nc4c(C5CC5)cnn34)nc2c1` [Example 210, 8-cyclopropyl-N-[(5-methyl-1H-benzimidazol-2-yl)methyl]-2-(4-methylpiperazin-1-yl)pyrazolo[1,5-a][1,3,5]triazin-4-amine] yielded a pIC50 (CDK9/CycT1) of less than 4.70, a pIC50 [1] of 8.64 and a pIC50 [2] of 8.09.

For `C[C@@H]1CN(c2nc(NCc3nc4c(F)c(F)ccc4[nH]3)n3ncc(C4CC4)c3n2)C[C@H](C)N1` [Example 170, 8-cyclopropyl-N-[(4,5-difluoro-1H-benzimidazol-2-yl)methyl]-2-[(3R,5S)-3,5-dimethylpiperazin-1-yl]pyrazolo[1,5-a][1,3,5]triazin-4-amine], the pIC50 (CDK9/CycT1) was less than 4.70, the pIC50 [1] was 9.38 and the pIC50 [2] was 8.65.

For `Cc1ccc2[nH]c(CNc3nc(N4C[C@@H]5CCCN[C@@H]5C4)nc4c(Br)cnn34)nc2c1` [Example 203, 8-bromo-N-[(5-methyl-1H-benzimidazol-2-yl)methyl]-2-[(4aS, 7aS)-octahydro-6H-pyrrolo[3,4-b]pyridin-6-yl]pyrazolo[1,5-a][1,3,5]triazin-4-amine], the pIC50 (CDK9/CycT1) was less than 4.70, the pIC50 [1] was 8.92 and the pIC50 [2] was 8.77.

Compound `COc1cccc2[nH]c(CNc3nc(N4C[C@H]5C[C@@H]4CO5)nc4c(C5CC5)cnn34)nc12` [Example 198, 8-cyclopropyl-N-[(4-methoxy-1H-benzimidazol-2-yl)methyl]-2-[(1R,4R)-2-oxa-5-azabicyclo[2.2.1]heptan-5-yl]pyrazolo[1,5-a][1,3,5]triazin-4-amine] has a pIC50 (CDK9/CycT1) of less than 4.70, a pIC50 [1] of 7.22 and a pIC50 [2] of 7.01.

With `CN(C)[C@@H]1CCN(c2nc(NCc3nc4ccccc4[nH]3)n3ncc(Br)c3n2)C1` [Example 178, N-[(1H-benzimidazol-2-yl)methyl]-8-bromo-2-[(3R)-3-(dimethylamino)pyrrolidin-1-yl]pyrazolo[1,5-a][1,3,5]triazin-4-amine] the pIC50 (CDK9/CycT1) was less than 4.70 and the pIC50 [2] was 6.30.

Work on `CN1CC2CCC(C1)N2c1nc(NCc2nc3ccccc3[nH]2)n2ncc(Br)c2n1` [Example 226, N-(1H-benzimidazol-2-ylmethyl)-8-bromo-2-(3-methyl-3,8-diazabicyclo[3.2.1]octan-8-yl)pyrazolo[1,5-a][1,3,5]triazin-4-amine] yielded a pIC50 (CDK9/CycT1) of less than 4.70 and a pIC50 [2] of 6.79.

In the case of `Cc1ccc2[nH]c(CNc3nc(N4CCNCC4)nc4c(Br)cnn34)nc2c1` [Example 204, 8-bromo-N-[(5-methyl-1H-benzimidazol-2-yl)methyl]-2-(piperazin-1-yl)pyrazolo[1,5-a][1,3,5]triazin-4-amine], the pIC50 (CDK9/CycT1) was less than 4.70, the pIC50 [1] was 8.95 and the pIC50 [2] was 8.80.

`CN1CCN(c2nc(NCc3nc4ccccc4[nH]3)n3ncc(Br)c3n2)CC1` [Example 18, N-[(1H-benzimidazol-2-yl)methyl]-8-bromo-2-(4-methylpiperazin-1-yl)pyrazolo[1,5-a][1,3,5]triazin-4-amine] gave a pIC50 (CDK9/CycT1) of less than 4.70, a pIC50 [1] of 7.94 and a pIC50 [2] of 7.51.

For `CN1CCCC2CN(c3nc(NCc4nc5ccccc5[nH]4)n4ncc(Br)c4n3)CC21` (stereo not shown) [Example 231, N-[(1H-benzimidazol-2-yl)methyl]-8-bromo-2-(1-methyloctahydro-6H-pyrrolo[3,4-b]pyridin-6-yl)pyrazolo[1,5-a][1,3,5]triazin-4-amine], the pIC50 (CDK9/CycT1) was less than 4.70 and the pIC50 [2] was 6.96.

`OC1CCCN(c2nc(NCc3nc4ccccc4[nH]3)n3ncc(Br)c3n2)C1` (racemic) [Example 16, (rac)-1-(4-{[(1H-benzimidazol-2-yl)methyl]amino}-8-bromopyrazolo[1,5-a][1,3,5]triazin-2-yl)piperidin-3-ol] gave a pIC50 (CDK9/CycT1) of less than 4.70, a pIC50 [1] of 8.27 and a pIC50 [2] of 7.09.

`Fc1ccc2[nH]c(CNc3nc(N4CCNCC4)nc4c(C5CC5)cnn34)nc2c1` [Example 190, 8-cyclopropyl-N-[(5-fluoro-1H-benzimidazol-2-yl)methyl]-2-(piperazin-1-yl)pyrazolo[1,5-a][1,3,5]triazin-4-amine] showed a pIC50 (CDK9/CycT1) of less than 4.70, a pIC50 [1] of 8.49 and a pIC50 [2] of 8.40.

For `OC1CCN(c2nc(NCc3nc4ccccc4[nH]3)n3ncc(Br)c3n2)CC1` [Example 17, 1-(4-{[(1H-benzimidazol-2-yl)methyl]amino}-8-bromopyrazolo[1,5-a][1,3,5]triazin-2-yl)piperidin-4-ol], the pIC50 (CDK9/CycT1) was less than 4.70, the pIC50 [1] was 7.92 and the pIC50 [2] was 6.97.

`Fc1ccc2[nH]c(CNc3nc(N4CCOCC4)nc4c(C5CC5)cnn34)nc2c1` [Example 181, 8-cyclopropyl-N-[(5-fluoro-1H-benzimidazol-2-yl)methyl]-2-(morpholin-4-yl)pyrazolo[1,5-a][1,3,5]triazin-4-amine] was tested, and the pIC50 (CDK9/CycT1) was less than 4.70, the pIC50 [1] was 8.45 and the pIC50 [2] was 8.03.

With `COc1ccc2[nH]c(CNc3nc(N4C[C@@H](C)N[C@@H](C)C4)nc4c(Br)cnn34)nc2c1` [Example 205, 8-bromo-2-[(3R,5S)-3,5-dimethylpiperazin-1-yl]-N-[(5-methoxy-1 H-benzimidazol-2-yl)methyl]pyrazolo[1,5-a][1,3,5]triazin-4-amine] the pIC50 (CDK9/CycT1) was less than 4.70, the pIC50 [1] was 8.74 and the pIC50 [2] was 8.38.

`OC1(C(F)(F)F)CCN(c2nc(NCc3nc4ccccc4[nH]3)n3ncc(Br)c3n2)C1` (stereo not shown) [Example 200, 1-[4-(1H-benzimidazol-2-ylmethylamino)-8-bromo-pyrazolo[1,5-a][1,3,5]triazin-2-yl]-3-(trifluoromethyl)pyrrolidin-3-ol] showed a pIC50 (CDK9/CycT1) of less than 4.70, a pIC50 [1] of 7.18 and a pIC50 [2] of 6.82.

Compound `OCCNc1nc(NCc2nc3ccccc3[nH]2)n2ncc(Br)c2n1` [Example 228, 2-[(4-{[(1H-benzimidazol-2-yl)methyl]amino}-8-bromopyrazolo[1,5-a][1,3,5]triazin-2-yl)amino]ethan-1-ol] has a pIC50 (CDK9/CycT1) of less than 4.70 and a pIC50 [2] of 6.36.

With `Cc1cc(-c2cnn3c(NCc4nc5ccccc5[nH]4)nc(N4CCN(C)CC4)nc23)ccn1` [Example 243, N-[(1H-benzimidazol-2-yl)methyl]-2-(4-methylpiperazin-1-yl)-8-(2-methylpyridin-4-yl)pyrazolo[1,5-a][1,3,5]triazin-4-amine] the pIC50 (CDK9/CycT1) was less than 4.70.

For `CCN(C)c1nc(NCc2nc3ccccc3[nH]2)n2ncc(Br)c2n1` [Example 233, N4-(1H-benzimidazol-2-ylmethyl)-8-bromo-N2-ethyl-N2-methyl-pyrazolo[1,5-a][1,3,5]triazine-2,4-diamine], the pIC50 (CDK9/CycT1) was less than 4.70 and the pIC50 [2] was 6.84.

With `CN(CCO)c1nc(NCc2nc3ccccc3[nH]2)n2ncc(Br)c2n1` [Example 237, 2-[(4-{[(1H-benzimidazol-2-yl)methyl]amino}-8-bromopyrazolo[1,5-a][1,3,5]triazin-2-yl)(methyl)amino]ethan-1-ol] the pIC50 (CDK9/CycT1) was less than 4.70 and the pIC50 [2] was 6.79.

With `CO[C@H]1CCN(c2nc(NCc3nc4ccccc4[nH]3)n3ncc(Br)c3n2)C1` [Example 222, N-[(1H-benzimidazol-2-yl)methyl]-8-bromo-2-[(3S)-3-methoxypyrrolidin-1-yl]pyrazolo[1,5-a][1,3,5]triazin-4-amine] the pIC50 (CDK9/CycT1) was less than 4.70 and the pIC50 [2] was 6.74.

Compound `CC1CN(c2nc(NCc3nc4ccccc4[nH]3)n3ncc(C(C)C)c3n2)CCO1` (racemic) [Example 11, (rac)-N-[(1H-benzimidazol-2-yl)methyl]-2-[2-methylmorpholin-4-yl]-8-(propan-2-yl)pyrazolo[1,5-a][1,3,5]triazin-4-amine] has a pIC50 (CDK9/CycT1) of less than 4.70 and a pIC50 [1] of 7.50.

With `CN(C)[C@H]1CCN(c2nc(NCc3nc4ccccc4[nH]3)n3ncc(Br)c3n2)C1` [Example 177, N-[(1H-benzimidazol-2-yl)methyl]-8-bromo-2-[(3S)-3-(dimethylamino)pyrrolidin-1-yl]pyrazolo[1,5-a][1,3,5]triazin-4-amine] the pIC50 (CDK9/CycT1) was less than 4.70 and the pIC50 [2] was 6.48.

Work on `CN(CCN1CCCC1)c1nc(NCc2nc3ccccc3[nH]2)n2ncc(Br)c2n1` [Example 239, N4-(1H-benzimidazol-2-ylmethyl)-8-bromo-N2-methyl-N2-(2-pyrrolidin-1-ylethyl)pyrazolo[1,5-a][1,3,5]triazine-2,4-diamine] yielded a pIC50 (CDK9/CycT1) of less than 4.70 and a pIC50 [2] of 6.25.

`Brc1cnn2c(NCc3nc4ccccc4[nH]3)nc(NCCN3CCCC3)nc12` [Example 235, N4-(1H-benzimidazol-2-ylmethyl)-8-bromo-N2-(2-pyrrolidin-1-ylethyl)pyrazolo[1,5-a][1,3,5]triazine-2,4-diamine] gave a pIC50 (CDK9/CycT1) of less than 4.70 and a pIC50 [2] of 6.50.

`COCCNc1nc(NCc2nc3ccccc3[nH]2)n2ncc(Br)c2n1` [Example 230, N4-(1H-benzimidazol-2-ylmethyl)-8-bromo-N2-(2-methoxyethyl)pyrazolo[1,5-a][1,3,5]triazine-2,4-diamine] gave a pIC50 (CDK9/CycT1) of less than 4.70 and a pIC50 [2] of 6.58.

`C[C@@H]1CN(c2nc(NCc3nc4ccccc4[nH]3)n3ncc(Br)c3n2)CCN1` [Example 168, N-[(1H-benzimidazol-2-yl)methyl]-8-bromo-2-[(3R)-3-methylpiperazin-1-yl]pyrazolo[1,5-a][1,3,5]triazin-4-amine] was tested, and the pIC50 (CDK9/CycT1) was less than 4.70 and the pIC50 [1] was 8.61.

In the case of `CC(C)c1cnn2c(NCc3nc4ccccc4[nH]3)nc(Nc3ccccc3)nc12` [Example 13, N^4-[(1H-benzimidazol-2-yl)methyl]-N^2-phenyl-8-(propan-2-yl)pyrazolo[1,5-a][1,3,5]triazine-2,4-diamine], the pIC50 (CDK9/CycT1) was less than 4.70.
